Measurements: patent publication US8399440B2, “Disease modifying anti-arthritic activity of 2-methoxyestradiol” (EntreMed, Inc., priority 2006, dated 2013)

Test system: Arthrogen Collagen MAb-Induced Arthritis
Experiment: Arthrogen collagen MAb-induced arthritis (Arthrogen-CIA model of RA)
Format: in vivo, Mouse (Balb/C)
Conditions: Study SMP05-046; either drug alone (2ME2 10 or 100 mg/kg/d PO; MTX 0.1 or 1 mg/kg/d IP)

With `CN(Cc1cnc2nc(N)nc(N)c2n1)c1ccc(C(=O)N[C@@H](CCC(=O)O)C(=O)O)cc1` [MTX, methotrexate, reference compound] the “pathology in the liver” value was “No pathology”.
